Where a SMILES comes first, the peptide text is derived from it.
Legend:
[1] = Plasma, whole brain and cerebrospinal fluid concentrations after SC or IV injection, LC MS/MS; assay type: in vivo, mouse; conditions: for half-life: mouse, in vivo, read-out: T½ in brain (converted)
Procedure: 13 mg/kg and 52 mg/kg of P1 were either subcutaneously or intravenously injected in wild-type mice in either 4.38 mM L-His, 140 mM NaCl, 0.2% Tween-20 and 1500 IU hyaluronidase (for SC, pH 6.15) or saline (IV). Both plasma, whole brain and cerebrospinal fluid concentrations were validated at different timepoints of 0.25-4 hours by LC MS/MS.
We further explored whether delivery to the CSF and brain would be dose-dependent by the SC route. P1 (SEQ ID NO: 1) were subcutaneously injected in wild-type mice in different concentrations of 0-52 mg/kg in 4.38 mM L-His, 140 mM NaCl, 0.2% Tween-20 and 1500 IU hyaluronidase (pH 6.15). Levels of P1 were validated in both plasma, whole brain and cerebrospinal fluid after 15 min injection by LC MS/MS.
13 mg/kg of P1 (SEQ ID NO: 1) were subcutaneously injected in wild-type mice in different formulations in either PBS buffer, in buffer containing 4.38 mM L-His, 140 mM NaCl, 0.2% Tween-20 and 1500 IU hyaluronidase (pH 6.15) or in buffer with 4.38 mM L-His, 140 mM NaCl, 0.2% Tween-20. Levels of P1 were validated in both plasma and whole brain after 15 and 30 min. of injection by LC MS/MS.

[2] = tested on: BDNF, TrkB, PGC1a, DARPP32; assay: Neurotrophic and mitochondrial proteins in cortex of R6/2 mice after daily SC administration; assay type: in vivo, mouse; conditions: 13 mg/kg SC daily, 8 to 12 weeks of age
Procedure: In a separate study, we validated target engagement of P1 (SEQ ID NO: 1) in R6/2 mice (mouse model of Huntington's), when treated for a prolonged period in the late stage of disease in this model. R6/2 mice were obtained from the Jackson Laboratory as: • FEMALE B6CBA-Tg(HDexon1)62Gpb/3J, stock 006494. Hemizygous (R6/2) • FEMALE B6CBA-Tg(HDexon1)62Gpb/3J, stock 006494. NonCarrier (WT controls)
The R6/2 mice were injected with a daily dose of 13 mg/kg of P1 subcutaneously in 4.38 mM L-His, 140 mM NaCl, 0.2% Tween-20 and 1500 IU hyaluronidase (pH 6.15) between 8 weeks to 12 weeks of age. At 12 weeks of age, mice were sacrificed and their brains removed and both hippocampus—cortex and striatal tissue was isolated and lysed in RIPA lysis buffer containing containing cOmplete and phosSTOP.
Levels of both BDNF and its receptor, TrkB, were validated along with levels of the mitochondrial master regulator PGC1a. In addition, levels of DARPP32, a marker of medium spiny neurons (MSN), which are the neurons that ultimately perish in HD, were evaluated in cortex tissue.

[3] = Plasma stability, human plasma; assay type: in vitro ADME; conditions: 2 μM, 37° C.
Procedure: Mouse or human plasma were incubated with 2 μM of P1 (SEQ ID NO: 1) or propantheline bromide (positive control for degradation) and left at 37° C. At each time point, stop solution was added to precipitate the solution and after mixing and centrifugation, supernatant was used for LCMS analysis.

[4] = Plasma binding, mouse plasma, ultracentrifugation; assay type: in vitro ADME
Procedure: For plasma binding, 2 μM P1 or Warfarin (positive control) were added to mouse or human plasma. After 30 minutes incubation at 37° C., samples where ultracentrifuged for 4 hours to generate protein-free samples for LCMS analysis. In parallel, plasma was incubated for 4.5 h to determine total levels after incubation. Plasma binding was calculated as % Bound=100*(1−F/T4.5), where F is concentration of free ligand and T4.5 is the concentration of total ligand after incubation.

[5] = Liver microsome stability, mouse; assay type: in vitro ADME; conditions: 2 μM, up to 60 minutes
Procedure: Reactions were stopped at timepoints between 0-60 min. and samples analysed by LCMS.

[6] = tested on: CYP450 enzymes; assay: Cytochrome P450 inhibition in liver microsomes; assay type: in vitro ADME; conditions: dose-range of P1, with or without NADPH
Procedure: Liver microsomes were prepared with cocktails of known substrates of the respective CYP450 enzymes to evaluate the effects of P1 on enzyme inhibition. For each CYP-enzyme a previously described inhibitor was used as a positive control. Sample solutions were pre-incubated with P1 (10 mM) or inhibitor at 37° C. for ten minutes before addition of NADPH. Enzyme activity was measured in samples containing a dose-range of P1 with or without NAPDH (substrate used by the liver enzymes in detoxification steps). Reactions were incubated for 10 minutes before the reactions were stopped and analysed by LCMS to detect CYP metabolites.

[7] = tested on: GRN+/- hippocampal neurons; assay: Dendritic branching of GRN+/- hippocampal neurons; assay type: cell-based, mouse; conditions: 1 uM, 72 hours
Procedure: To further validate the therapeutic potential of peptide P1 in frontotemporal dementia, its neurotrophic activity in GRN heterozygous hippocampal neurons isolated from p0 mice was investigated. Heterozygous loss of function mutations in the progranulin gene, GRN, cause frontotemporal dementia^68. To assess this, we measured the dendritic branching of GRN+/− hippocampal neurons in vitro following treatment. 10000 neurons were seeded per coverslip. After 24 hours the medium was changed to medium containing 1 uM of peptide P1. Hereafter, the cells were incubated at 37° C. for 72 hours before being fixed in 4% PFA for 20 minutes at room temperature. The neurons were subsequently stained against MAP2 to determine cell morphology. Images were taken using a confocal microscope and the neurite branches were analysed using Zen Image Processing (Carl Zeiss). The total number of branches were calculated per neuron. Student's t-test was used for statistical analysis.

[8] = tested on: GRN; assay: GRN levels in hippocampus of wild-type mice after 7 days daily SC treatment; assay type: in vivo, mouse; conditions: 13 mg/kg SC daily for 7 days, sacrificed on day 8
Procedure: Wild-type mice were injected with a daily dose of 13 mg/kg of P1 (SEQ ID NO: 1) subcutaneously in 4.38 mM L-His, 140 mM NaCl, 0.2% Tween-20 and 1500 IU hyaluronidase (pH 6.15) for 7 days. The mice were sacrificed on day 8. The hippocampus was isolated and lysed using a TissueLyser in RIPA lysis buffer containing cOmplete and phosSTOP. Levels of GRN (ab HPA008763 from Sigma) was validated by western blotting normalized to beta-actin. Student's t-test was used for statistical analysis.

[9] = 2 μM, up to 60 minutes
Procedure: S9 fractions from 5 different species were incubated with 2 μM P1 (SEQ ID NO: 1) or 7-Ethoxycoumarin (positive control for clearance) and necessary reactants for up to 60 minutes at 37° C. Reactions were stopped and samples were analysed by LCMS.

[10] = SC 0-52 mg/kg, 15 min after injection

Q: For `CSCC[C@@H]1NC(=O)[C@H](C(C)C)NC(=O)[C@H](CC(=O)O)NC(=O)[C@H](CCC(=O)O)NC(=O)[C@H](CCC(=O)O)NC(=O)[C@H](Cc2c[nH]cn2)NC(=O)[C@H](CCC(=O)O)NC(=O)[C@H](C(C)C)NC(=O)[C@@H]2CCCN2C(=O)[C@H](CCC(=O)O)NC(=O)[C@H]([C@@H](C)O)NC1=O` [Peptide P1, [MTEPVEHEEDV]] (cyclo(MTEPVEHEEDV)), which “difference between L-His buffer with or without hyaluronidase” value ([1]; 13 mg/kg SC, plasma and whole brain, 15 and 30 min) is on record?
A: no significant difference

Q: And the “levels in plasma and whole brain in different formulations” value ([1]; 13 mg/kg SC, PBS, L-His buffer with or without hyaluronidase, 15 and 30 min)?
A: measurable in the plasma and brain in all formulations

Q: And the maximal brain-plasma ratio ([1]; IV delivery)?
A: 0.034

Q: What about the “levels in brain and CSF” value [1, 10] of the same compound?
A: measurable in the brain and CSF at all concentrations

Q: What about the “levels in plasma, brain and CSF versus dose” value [1, 10] of the same compound?
A: increased with the dosage

Q: And the maximal brain-plasma ratio ([1]; SC delivery)?
A: 0.032

Q: And the half-life ([1]; IV delivery, saline)?
A: 13.9 min

Q: What about the half-life ([1]; SC delivery, L-His buffer with hyaluronidase) of the same compound?
A: 19 min

Q: And the “BDNF levels in cortex” value [2]?
A: significantly higher basal levels

Q: What about the “DARPP32 levels in cortex” value [2] of the same compound?
A: tendency to increase

Q: What about the “PGC1a levels in cortex” value [2] of the same compound?
A: significantly higher basal levels

Q: What about the “TrkB levels in cortex” value [2] of the same compound?
A: significantly higher basal levels

Q: What about the half-life [3] of the same compound?
A: > 289 min

Q: And the plasma binding ([4]; 2 μM)?
A: very low plasma binding

Q: What about the fraction unbound at 30 min, 2 μM ([4]; read-out: compound unbound in plasma) of the same compound?
A: > 0.75

Q: What about the “clearance and stability in liver microsomes” value [5] of the same compound?
A: low clearance and high stability

Q: What about the CYP-inhibition [6] of the same compound?
A: no CYP-inhibition effects

Q: And the “number of branches per neuron” value [7]?
A: increased branching

Q: What about the “GRN levels in hippocampus” value [8] of the same compound?
A: higher levels of GRN

Q: And the “clearance and stability in liver S9 fractions” value ([9]; 5 different species)?
A: low clearance and high stability

Q: And the “stability in mouse and human S9 liver fractions” value ([9]; mouse and human)?
A: some stability is lost

— US20230312652A1, “NOVEL PEPTIDES AND USES THEREOF” (Aarhus Universitet, priority 2020, published 2023)
